“And” between values parts separate entries of the source, which are not always exact repeats. Identical values can stand only once.
Legend:
Assay type in all cases: in vivo, human
[1] = tested on: subjects with PH-IPF on LTOT; assay: Safety and tolerability of iNO dose, PH-IPF study
Description: The safety endpoints in this study were: • a. Incidence and severity of treatment emergent adverse events (AEs), including those related to device deficiency; • b. Incidence of MetHb levels>7.0%; • c. New symptoms that may be due to rebound PH associated with a temporal acute withdrawal of investigational study drug (i.e., symptoms occurring within 20 minutes of acute withdrawal and including those associated with investigational medical device malfunction or failure): systemic arterial oxygen desaturation, hypoxemia, bradycardia, tachycardia, systemic hypotension, near-syncope, syncope, ventricular fibrillation, and/or cardiac arrest; • d. New or worsening symptoms of left heart failure or pulmonary edema; and • e. Any decrease in systemic oxygenation measured by oxygen saturation of arterial blood by pulse oximetry (SpO2), i.e., hypoxia or oxygen saturation decrease, deemed by the Investigator to be clinically significant.
The initial protocol intended that 4 subjects would be enrolled in Part 2. […] It was decided to temporarily stop recruitment. One of the 2 subjects completed 4 weeks of chronic use in Part 2b.
In the amendment a total of 2 subjects participated in Part 3. The dose in Part 3 was lower than in Part 2 and each subject was titrated to the optimum dose as determined by the investigator. […] The dose was monitored with a RHC in place. […]

[2] = tested on: subjects with PH-COPD; assay: Six-minute walk distance (6MWD) during chronic iNO therapy, PH-COPD study; conditions: iNO 30 mcg/kg IBW/hr, individual subjects #1-#7
Description: (§1) This study is an open label Phase 1 study of iNO therapy in subjects with PH-COPD (PULSE-COPD-007; NCT03135860). The primary outcome of this study is the change in lobar blood volume at total lung capacity with iNO and the change in lobar blood volume with iNO after 4 weeks of treatment with iNO as measured by HRCT.
(§2) Subjects also had sPAP≥38 mm Hg as measured by echocardiogram, a post-bronchodilatory FEV1/FVC<0.7 and a FEV1<60% predicted. All subjects were at least 40 years old and were current or former smokers with at least 10 pack-years of tobacco cigarette smoking before study entry. All subjects also had been receiving LTOT for at least 3 months for at least 10 hours per day.
(§3) The PH-COPD subjects received pulsed iNO therapy for 4 weeks for at least 12 hours/day. The iNO was administered utilizing a 4,880 ppm NO cylinder concentration.
(§4) A further analysis was performed of seven PH-COPD subjects that completed 4 weeks of treatment with iNO at a dose of 30 mcg/kg IBW/hr.

[3] = tested on: subjects with PH-COPD; assay: TAPSE (RV function) during chronic pulsed iNO therapy, PH-COPD study; set-up: TAPSE Increase: unit not given beside the values
Description: (§5) Maintenance and/or improvements in RV function can be assessed by many echocardiographic measurements. One such quantitative approach to assess RV function is the measurement of the TAPSE. The TAPSE estimates RV systolic function by measuring the level of systolic excursion of the lateral tricuspid valve annulus towards the apex. An excellent correlation between the TAPSE and RV ejection fraction as assessed by radionuclide angiography has previously been established and the approach appears reproducible and proven to be a strong predictor of prognosis in heart failure. [Reference: Heart. 2006 April; 92(Suppl 1): i19-i26.]
as §1, §2, §3
These subjects were diagnosed with PH-COPD and received 4 weeks of treatment with iNO at a dose of 30 mcg/kg IBW/hr. The results verify the increase in TAPSE which correlates to RV function.

[4] = tested on: subjects with PH-COPD; assay: HRCT blood vessel volume, acute iNO, PH-COPD study (PULSE-COPD-007); conditions: individual subjects #1-#7
Description: as §1, §2, §3, §4

[5] = tested on: subjects with PH-IPF on LTOT; assay: TAPSE (RV function) during chronic pulsed iNO therapy, PH-IPF study
Description: as §5
The secondary endpoints of Part 2a (acute; placebo vs. iNO 75 mcg/kg IBW/hr) were change in Borg CR10 leg fatigue and dyspnea scale, changes in breathing questionnaire and changes in right ventricular and left ventricular function.
One patient from Part 2a entered into Part 2b. During Part 2b patient receive iNO utilizing NO cylinder concentration (4,880 ppm) at a dose of 75 mcg/kg IBW/hr during 4 weeks for at least 12 hours/day.
The 2 patients from Part 3a entered Part 3b. During Part 3b, patients received iNO utilizing NO cylinder concentration (4,880 ppm) at a dose of 30 mcg/kg IBW/hr.
Subject 1 received pulsed iNO at a dose of 75 mcg/kg IBW/hr for 4 weeks, and Subject 3 received pulsed iNO at a dose of 30 mcg/kg IBW/hr for 4 weeks.

[6] = tested on: subjects with PH-COPD; assay: sPAP by echocardiogram during chronic iNO therapy, PH-COPD study
Description: as §1, §2, §3
A further analysis was performed of seven PH-COPD subjects that completed 4 weeks of treatment with iNO at a dose of 30 mcg/kg IBW/hr. […]

[7] = tested on: subjects with PH-IPF on LTOT; assay: sPAP by echocardiogram, acute iNO, PH-IPF study; conditions: iNO 75 mcg/kg IBW/hr, individual patients (Patient 1, Patient 2)
Description: This study was an exploratory, three-part, clinical study to assess the effect of pulsed iNO on functional pulmonary imaging parameters in subjects with PH-COPD on LTOT (Part 1) PH-IPF on LTOT (Part 2 and Part 3) (IK-7002-COPD-006; NCT02267655). The objective of this exploratory study was to examine the utility of high resolution computed tomography (HRCT) to measure changes in functional respiratory imaging parameters as a function of short term iNO administration using a pulsed NO delivery device in subjects with PH-IPF (Part 2 and Part 3) on LTOT. The primary endpoint in this exploratory study is the change from baseline in lobar blood volume at total lung capacity (TLC) after dosing with pulsed iNO (Part 1), iNO or Placebo (Part 2a) and after 4 weeks iNO treatment (Part 3b) as measured by HRCT. […]
(§6) The 2 subjects enrolled in Part 3a each received three different doses of iNO utilizing NO cylinder concentration (4,880 ppm) at a dose of 5 mcg/kg IBW/hr, 10 mcg/kg IBW/hr and 30 mcg/kg IBW/hr, all with LTOT. For each dose, the change in PAP pressure and the change in cardiac output was evaluated by RHC. […]
During the chronic phase, the vasodilation and the hemodynamics were assessed. […] Both the acute and chronic phases evaluated iNO doses of 30 and 75 mcg/kg IBW/hr.

[8] = tested on: subjects with PH-IPF on LTOT; assay: HRCT blood vessel volume, acute iNO, PH-IPF study (IK-7002-COPD-006); conditions: iNO 75 mcg/kg IBW/hr, individual patients (Patient 1, Patient 2)
Description: This study was an exploratory, three-part, clinical study to assess the effect of pulsed iNO on functional pulmonary imaging parameters in subjects with PH-COPD on LTOT (Part 1) PH-IPF on LTOT (Part 2 and Part 3) (IK-7002-COPD-006; NCT02267655). The objective of this exploratory study was to examine the utility of high resolution computed tomography (HRCT) to measure changes in functional respiratory imaging parameters as a function of short term iNO administration using a pulsed NO delivery device in subjects with PH-IPF (Part 2 and Part 3) on LTOT. The primary endpoint in this exploratory study is the change from baseline in lobar blood volume at total lung capacity (TLC) after dosing with pulsed iNO (Part 1), iNO or Placebo (Part 2a) and after 4 weeks iNO treatment (Part 3b) as measured by HRCT.
This was an exploratory clinical study to evaluated the utility of HRCT to measure the pharmacodynamic effects of short term pulsed administration of iNO using a pulsed NO delivery device in subjects with PH-IPF (Part 2 and Part 3) on LTOT. […]
as §6

[9] = iNO 30 mcg/kg IBW/hr for 4 weeks, average of four subjects, vs baseline
[10] = iNO 30 mcg/kg IBW/hr for 4 weeks, vs baseline, individual subjects (1, 6, 7, 12)
[11] = PH-IPF Subject 1, pulsed iNO 75 mcg/kg IBW/hr for 4 weeks, vs baseline
[12] = PH-IPF Subject 3, pulsed iNO 30 mcg/kg IBW/hr for 4 weeks, vs baseline
[13] = PH-IPF, average of Subject 1 (75) and Subject 3 (30 mcg/kg IBW/hr), 4 weeks, vs baseline
[14] = group value, vs baseline 60.3 mm Hg, p=0.02
[15] = iNO 30 mcg/kg IBW/hr, 4 weeks vs baseline, individual subjects #1-#7

[N]=O [iNO, nitric oxide]
Safety of dose titration monitored with RHC ([1]; 2 PH-IPF subjects of Part 3, titrated 5, 10, 30 mcg/kg IBW/hr): could titrate to iNO at a dose of 30 mcg/kg IBW/hr safely | PAP after discontinuation of iNO ([1]; two PH-IPF patients of Part 2, iNO 75 mcg/kg IBW/hr): sudden increase in PAP after discontinuation | 6MWD Change from Baseline, 2 weeks iNO ([2]; 2 weeks vs baseline): +135 meters and +79 meters and +15 meters and +35 meters and +25 meters and +57 meters and +32 meters | 6MWD, 2 weeks iNO ([2]; 2 weeks): 335 meters and 263 meters and 493 meters and 115 meters and 495 meters and 400 meters and 173 meters | 6MWD Change from Baseline, 4 weeks iNO ([2]; 4 weeks vs baseline): +135 meters and +11 meters and +2 meters and −3 meters and +28 meters and +80 meters and +100 meters | 6MWD, 4 weeks iNO ([2]; 4 weeks): 335 meters and 195 meters and 480 meters and 77 meters and 498 meters and 423 meters and 242 meters | TAPSE after iNO therapy was discontinued ([3]; group value, N=5 (FIG. 7)): 19.0 | TAPSE 4 Week, Average ([3]; iNO 30 mcg/kg IBW/hr for 4 weeks, average of four subjects, baseline 16): 20 | TAPSE % Change, Average [3, 9]: 25% | TAPSE Increase, Average [3, 9]: 4 | TAPSE 4 Week ([3]; iNO 30 mcg/kg IBW/hr for 4 weeks, individual subjects (1, 6, 7, 12)): 14 and 18 (2×) and 28 | TAPSE % Change [3, 10]: 0% and 67% and 22% and 13% | TAPSE Increase [3, 10]: 0 and 7 and 5 and 2 | Acute change in Blood Vessel Volume % [4]: 6.2 ± 1.6% and 3.3 ± 2.1% and 6.6 ± 4.5% and 9.7 ± 3.5% and −1.0 ± 4.0% and 2.7 ± 0.4% | TAPSE % Change [5, 11]: 21% | TAPSE Increase [5, 11]: 3 | TAPSE % Change [5, 12]: 12% | TAPSE Increase [5, 12]: 4 | TAPSE % Change, Average [5, 13]: 15% | TAPSE Increase, Average [5, 13]: 3 | TAPSE 4 Week, Average ([5]; PH-IPF, average of Subject 1 (75 mcg/kg IBW/hr) and Subject 3 (30 mcg/kg IBW/hr), 4 weeks, baseline 20): 23 | sPAP 4 weeks after iNO therapy was discontinued ([6]; group value (FIG. 6)): 58.0 mm Hg | sPAP drop after 4 weeks of iNO therapy [6, 14]: 12.0 mm Hg | sPAP drop after 4 weeks of iNO therapy (%) [6, 14]: 19.9% | sPAP, 4 weeks iNO ([6]; iNO 30 mcg/kg IBW/hr for 4 weeks, individual subjects #1-#7): 69 mm Hg and 37 mm Hg and 40 mm Hg and 74 mm Hg and 30 mm Hg and 34 mm Hg and 54 mm Hg | Change sPAP (mm Hg) [6, 15]: −25 mm Hg and −10 mm Hg (2×) and −15 mm Hg and −4 mm Hg and −12 mm Hg and −8 mm Hg | sPAP % Change [6, 15]: −27% (2×) and −21% and −5% and −25% and −26% and −13% | Acute Change in sPAP (%) [7]: −9.3% and −9.7% | Acute change in Blood Vessel Volume % [8]: 14.0 ± 4.7% and 34.2 ± 7.6%
